The values that follow come from patent publication US11306101B2 (Celgene Corporation, priority 2019, dated 2022).

Structures are written as SMILES.

For the assay, the target named is T1, CK1α (Homo sapiens, UniProt P48729+Q96SW2).
T1 construct: expressed in transfected cells
In words: CK1α ePL degradation assay in MDS-L cells. The format is cell-based. To be noted: MDS-L cells expressing ePL-tagged CK1α; for DC50: concentration giving 50% CK1α degradation vs DMSO control; for Y: lowest measured CK1α level normalized to DMSO control. In a few lines:
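MDS-L cells treated with compound in a 10-point, 3-fold series from 10 μM to 0.0005 μM at 37° C, 5% CO2 for the indicated times; CK1α measured by InCELL Hunter enzyme-fragment luminescence. Levels normalized to DMSO as percent of control; lowest level reached taken as Y value.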

T1 sequence (P48729 whole entry): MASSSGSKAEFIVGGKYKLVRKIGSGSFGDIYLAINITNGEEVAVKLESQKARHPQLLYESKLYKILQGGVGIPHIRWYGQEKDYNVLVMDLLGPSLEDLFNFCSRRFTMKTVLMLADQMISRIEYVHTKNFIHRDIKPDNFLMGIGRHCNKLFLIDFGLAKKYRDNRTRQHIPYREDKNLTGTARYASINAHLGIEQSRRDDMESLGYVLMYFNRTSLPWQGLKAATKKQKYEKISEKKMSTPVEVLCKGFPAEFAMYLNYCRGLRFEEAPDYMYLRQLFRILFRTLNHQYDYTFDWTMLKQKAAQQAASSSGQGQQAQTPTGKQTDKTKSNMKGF
T1 sequence (Q96SW2 whole entry): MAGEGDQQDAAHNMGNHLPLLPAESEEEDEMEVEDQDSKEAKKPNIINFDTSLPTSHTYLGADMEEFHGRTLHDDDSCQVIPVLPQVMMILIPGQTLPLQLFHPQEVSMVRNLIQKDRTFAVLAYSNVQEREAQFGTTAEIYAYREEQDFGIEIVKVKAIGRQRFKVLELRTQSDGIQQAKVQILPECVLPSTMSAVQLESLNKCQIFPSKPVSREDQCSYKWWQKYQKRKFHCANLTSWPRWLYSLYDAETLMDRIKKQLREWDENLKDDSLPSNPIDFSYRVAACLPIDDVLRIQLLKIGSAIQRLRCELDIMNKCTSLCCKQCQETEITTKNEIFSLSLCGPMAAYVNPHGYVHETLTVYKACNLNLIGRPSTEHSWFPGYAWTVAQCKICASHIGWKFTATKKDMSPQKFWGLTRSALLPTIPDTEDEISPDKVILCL
T1 sequence (Q16531 whole entry partner): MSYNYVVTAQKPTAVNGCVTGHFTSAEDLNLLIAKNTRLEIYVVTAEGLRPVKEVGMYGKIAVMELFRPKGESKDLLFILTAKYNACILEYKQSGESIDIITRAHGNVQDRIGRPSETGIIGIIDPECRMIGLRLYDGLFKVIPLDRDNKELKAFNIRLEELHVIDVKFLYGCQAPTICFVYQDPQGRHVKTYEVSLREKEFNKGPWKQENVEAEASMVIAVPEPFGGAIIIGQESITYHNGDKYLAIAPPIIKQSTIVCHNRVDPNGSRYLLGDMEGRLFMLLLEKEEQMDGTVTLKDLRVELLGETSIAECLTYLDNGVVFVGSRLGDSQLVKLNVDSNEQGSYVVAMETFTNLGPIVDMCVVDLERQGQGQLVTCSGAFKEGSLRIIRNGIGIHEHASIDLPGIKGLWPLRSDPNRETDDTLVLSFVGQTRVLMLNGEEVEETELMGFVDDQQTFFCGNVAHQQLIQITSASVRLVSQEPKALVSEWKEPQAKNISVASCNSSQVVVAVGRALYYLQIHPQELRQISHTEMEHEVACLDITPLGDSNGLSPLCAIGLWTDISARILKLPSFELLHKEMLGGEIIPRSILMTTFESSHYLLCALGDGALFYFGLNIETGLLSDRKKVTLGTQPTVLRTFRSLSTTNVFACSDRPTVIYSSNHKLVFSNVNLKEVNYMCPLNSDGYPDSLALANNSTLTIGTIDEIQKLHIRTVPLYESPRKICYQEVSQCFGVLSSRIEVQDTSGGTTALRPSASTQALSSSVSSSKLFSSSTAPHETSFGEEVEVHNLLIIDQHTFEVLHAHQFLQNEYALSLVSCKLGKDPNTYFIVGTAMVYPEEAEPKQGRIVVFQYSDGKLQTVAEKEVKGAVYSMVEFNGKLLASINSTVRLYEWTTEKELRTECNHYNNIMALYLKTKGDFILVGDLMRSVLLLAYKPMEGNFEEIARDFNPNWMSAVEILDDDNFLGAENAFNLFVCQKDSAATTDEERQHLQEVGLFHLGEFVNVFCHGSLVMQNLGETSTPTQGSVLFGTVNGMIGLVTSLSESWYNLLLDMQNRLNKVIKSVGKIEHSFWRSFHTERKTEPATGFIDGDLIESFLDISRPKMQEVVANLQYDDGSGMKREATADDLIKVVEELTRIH

Take `O=C1CCC(N2Cc3cc(C(=O)N[C@H](c4ccccc4OC4CC4)C(F)(F)F)ccc3C2=O)C(=O)N1` (stereo partly drawn) [Example 161, N-((R)-1-(2-cyclopropoxyphenyl)-2,2,2-trifluoroethyl)-2-(2,6-dioxopiperidin-3-yl)-1-oxoisoindoline-5-carboxamide]: the DC50 (usually the concentration giving 50% degradation) is below 100 nM and the Y entry is “* (a Y value (shown as *) of 0<Y≤20%)”.

Turning to `O=C1CCC(N2Cc3cc(C(=O)N[C@@H](CC(F)(F)F)c4cccc(F)c4)ccc3C2=O)C(=O)N1` (stereo partly drawn) [Example 162, 2-(2,6-dioxopiperidin-3-yl)-1-oxo-N-((S)-3,3,3-trifluoro-1-(3-fluorophenyl)propyl)isoindoline-5-carboxamide], the DC50 fell in the range of 100 to 500 nM and the Y result is recorded as “** (a Y value (shown as**) of 20%<Y≤35%)”.

On to `O=C1CCC(N2Cc3cc(C(=O)N[C@H](c4ccc(Cl)cc4Cl)C(F)(F)F)ccc3C2=O)C(=O)N1` (stereo partly drawn) [Example 163, N-((R)-1-(2,4-dichlorophenyl)-2,2,2-trifluoroethyl)-2-(2,6-dioxopiperidin-3-yl)-1-oxoisoindoline-5-carboxamide], for which the half-maximal degradation concentration (DC50) was below 100 nM and the Y result is on record as “* (a Y value (shown as *) of 0<Y≤20%)”.

`O=C1CCC(N2Cc3c(ccc(C(=O)N[C@H](c4ccc(Cl)cc4Cl)C(F)(F)F)c3F)C2=O)C(=O)N1` (stereo partly drawn) [Example 164, N-((R)-1-(2,4-dichlorophenyl)-2,2,2-trifluoroethyl)-2-(2,6-dioxopiperidin-3-yl)-4-fluoro-1-oxoisoindoline-5-carboxamide]: the DC50 lay within 100 to 500 nM and the Y result is reported as “** (a Y value (shown as**) of 20%<Y≤35%)”.

Regarding `CC(C)(O)C12CC([C@@H](NC(=O)c3ccc4c(c3)CN(C3CCC(=O)NC3=O)C4=O)C(F)(F)F)(C1)C2` (stereo partly drawn) [Example 165, 2-(2,6-dioxopiperidin-3-yl)-1-oxo-N-((R)-2,2,2-trifluoro-1-(3-(2-hydroxypropan-2-yl)bicyclo[1.1.1]pentan-1-yl)ethyl)isoindoline-5-carboxamide], the DC50 was below 100 nM and the Y result was “* (a Y value (shown as *) of 0<Y≤20%)”.

On to `O=C1CCC(N2Cc3cc(C(=O)N[C@H](C4CCC5(CC4)CC5)C(F)(F)F)ccc3C2=O)C(=O)N1` (stereo partly drawn) [Example 166, 2-(2,6-dioxopiperidin-3-yl)-1-oxo-N-((1R)-2,2,2-trifluoro-1-(spiro[2.5]octan-6-yl)ethyl)isoindoline-5-carboxamide], for which the DC50 was below 100 nM and the Y result is reported as “* (a Y value (shown as *) of 0<Y≤20%)”.

Turning to `CC(C)[C@H](NC(=O)c1ccc2c(c1)CN(C1CCC(=O)NC1=O)C2=O)c1ccccc1F` (stereo partly drawn) [Example 167, 2-(2,6-dioxopiperidin-3-yl)-N-((S)-1-(2-fluorophenyl)-2-methylpropyl)-1-oxoisoindoline-5-carboxamide], the DC50 is below 100 nM and the Y result is “* (a Y value (shown as *) of 0<Y≤20%)”.

As for `C[C@]1(O)CC[C@@H]([C@@H](NC(=O)c2ccc3c(c2)CN(C2CCC(=O)NC2=O)C3=O)C(F)(F)F)CC1` (stereo partly drawn) [Example 168, 2-(2,6-dioxopiperidin-3-yl)-1-oxo-N-((R)-2,2,2-trifluoro-1-((1s,4S)-4-hydroxy-4-methylcyclohexyl)ethyl)isoindoline-5-carboxamide], the DC50 was below 100 nM and the Y result is recorded as “* (a Y value (shown as *) of 0<Y≤20%)”.

Consider `CC(C)[C@H](NC(=O)c1ccc2c(c1)CN(C1CCC(=O)NC1=O)C2=O)c1ccccc1Cl` (stereo partly drawn) [Example 169, N-((S)-1-(2-chlorophenyl)-2-methylpropyl)-2-(2,6-dioxopiperidin-3-yl)-1-oxoisoindoline-5-carboxamide], for which the DC50 was below 100 nM and the Y entry is “* (a Y value (shown as *) of 0<Y≤20%)”.

As to `CC(C)[C@H](NC(=O)c1ccc2c(c1)CN(C1CCC(=O)NC1=O)C2=O)c1ccc(F)cc1` (stereo partly drawn) [Example 170, 2-(2,6-dioxopiperidin-3-yl)-N-((S)-1-(4-fluorophenyl)-2-methylpropyl)-1-oxoisoindoline-5-carboxamide], the DC50 is below 100 nM and the Y entry is listed as “* (a Y value (shown as *) of 0<Y≤20%)”.

Take `CC(C)[C@@H](NC(=O)c1ccc2c(c1)CN(C1CCC(=O)NC1=O)C2=O)c1ncccc1Cl` (stereo partly drawn) [Example 171, N-((R)-1-(3-chloropyridin-2-yl)-2-methylpropyl)-2-(2,6-dioxopiperidin-3-yl)-1-oxoisoindoline-5-carboxamide]: the DC50 lay in the range of 100 to 500 nM and the Y entry is on record as “** (a Y value (shown as**) of 20%<Y≤35%)”.

`CC(C)[C@H](NC(=O)c1ccc2c(c1)CN(C1CCC(=O)NC1=O)C2=O)c1ncccc1Cl` (stereo partly drawn) [Example 172, N-((S)-1-(3-chloropyridin-2-yl)-2-methylpropyl)-2-(2,6-dioxopiperidin-3-yl)-1-oxoisoindoline-5-carboxamide]: the 50% degradation concentration (DC50) was below 100 nM and the Y result is given as “* (a Y value (shown as *) of 0<Y≤20%)”.

Regarding `O=C1CC[C@H](N2Cc3cc(C(=O)N[C@H](c4ncccc4Cl)C(F)(F)F)ccc3C2=O)C(=O)N1` [Example 173, N-((R)-1-(3-chloropyridin-2-yl)-2,2,2-trifluoroethyl)-2-((S)-2,6-dioxopiperidin-3-yl)-1-oxoisoindoline-5-carboxamide], the DC50 was below 100 nM and the Y entry was “* (a Y value (shown as *) of 0<Y≤20%)”.

Consider `CC(F)(F)C(NC(=O)c1ccc2c(c1)CN(C1CCC(=O)NC1=O)C2=O)c1ccc(F)cc1` (stereo not drawn) [Example 174, N-(2,2-difluoro-1-(4-fluorophenyl)propyl)-2-(2,6-dioxopiperidin-3-yl)-1-oxoisoindoline-5-carboxamide], for which the half-maximal degradation concentration (DC50) was below 100 nM and the Y result is “* (a Y value (shown as *) of 0<Y≤20%)”.

In the case of `O=C1CCC(N2Cc3cc(C(=O)N[C@H](c4ncc(F)cc4Cl)C(F)(F)F)ccc3C2=O)C(=O)N1` (stereo partly drawn) [Example 175, N-((R)-1-(3-chloro-5-fluoropyridin-2-yl)-2,2,2-trifluoroethyl)-2-(2,6-dioxopiperidin-3-yl)-1-oxoisoindoline-5-carboxamide], the half-maximal degradation concentration (DC50) was below 100 nM and the Y result was “* (a Y value (shown as *) of 0<Y≤20%)”.

`O=C1CCC(N2Cc3cc(C(=O)NC(C4CCC5(CC4)CC(O)C5)C(F)(F)F)ccc3C2=O)C(=O)N1` (stereo not drawn) [Example 176, 2-(2,6-dioxopiperidin-3-yl)-1-oxo-N-(2,2,2-trifluoro-1-(2-hydroxyspiro[3.5]nonan-7-yl)ethyl)isoindoline-5-carboxamide]: the DC50 is 100 to 500 nM and the Y result was “* (a Y value (shown as *) of 0<Y≤20%)”.

Consider `CC(C)[C@H](NC(=O)c1ccc2c(c1)CN(C1CCC(=O)NC1=O)C2=O)c1ccc(Cl)cc1` (stereo partly drawn) [Example 177, N-((S)-1-(4-chlorophenyl)-2-methylpropyl)-2-(2,6-dioxopiperidin-3-yl)-1-oxoisoindoline-5-carboxamide], for which the DC50 was below 100 nM and the Y result was “* (a Y value (shown as *) of 0<Y≤20%)”.

Turning to `O=C1CCC(N2Cc3c(ccc(C(=O)N[C@H](c4ncc(Cl)cc4Cl)C(F)(F)F)c3F)C2=O)C(=O)N1` (stereo partly drawn) [Example 178, N-((R)-1-(3,5-dichloropyridin-2-yl)-2,2,2-trifluoroethyl)-2-(2,6-dioxopiperidin-3-yl)-4-fluoro-1-oxoisoindoline-5-carboxamide], the DC50 was below 100 nM and the Y entry is recorded as “* (a Y value (shown as *) of 0<Y≤20%)”.

For the compound `O=C1CCC(N2Cc3cc(C(=O)N[C@H](c4ccc(CN5CC6(COC6)C5)cc4)C(F)(F)F)ccc3C2=O)C(=O)N1` (stereo partly drawn) [Example 179, N-((1R)-1-(4-(2-oxa-6-azaspiro[3.3]heptan-6-ylmethyl)phenyl)-2,2,2-trifluoroethyl)-2-(2,6-dioxopiperidin-3-yl)-1-oxoisoindoline-5-carboxamide], the half-maximal degradation concentration (DC50) is 100 to 500 nM and the Y result was “* (a Y value (shown as *) of 0<Y≤20%)”.

Consider `O=C1CCC(N2Cc3cc(C(=O)N[C@H](c4ccc(CN5CCCC5)cc4)C(F)(F)F)ccc3C2=O)C(=O)N1` (stereo partly drawn) [Example 180, 2-(2,6-dioxopiperidin-3-yl)-1-oxo-N-((R)-2,2,2-trifluoro-1-(4-(pyrrolidin-1-ylmethyl)phenyl)ethyl)isoindoline-5-carboxamide], for which the DC50 is below 100 nM and the Y result is on record as “* (a Y value (shown as *) of 0<Y≤20%)”.

Turning to `O=C1CCC(N2Cc3cc(C(=O)NC(C4CCC5(CC4)CC(O)C5)C(F)(F)F)ccc3C2=O)C(=O)N1` (stereo not drawn) [Example 181, 2-(2,6-dioxopiperidin-3-yl)-1-oxo-N-(2,2,2-trifluoro-1-(2-hydroxyspiro[3.5]nonan-7-yl)ethyl)isoindoline-5-carboxamide], the DC50 lay in the range of 100 to 500 nM and the Y result is on record as “* (a Y value (shown as *) of 0<Y≤20%)”.

Take `O=C1CC[C@@H](N2Cc3cc(C(=O)N[C@H](c4ncccc4Cl)C(F)(F)F)ccc3C2=O)C(=O)N1` [Example 182, N-((R)-1-(3-chloropyridin-2-yl)-2,2,2-trifluoroethyl)-2-((R)-2,6-dioxopiperidin-3-yl)-1-oxoisoindoline-5-carboxamide]: the DC50 is below 100 nM and the Y result is reported as “* (a Y value (shown as *) of 0<Y≤20%)”.

`O=C1CCC(N2Cc3c(ccc(C(=O)N[C@H](c4ncc(F)cc4Cl)C(F)(F)F)c3F)C2=O)C(=O)N1` (stereo partly drawn) [Example 183, N-((R)-1-(3-chloro-5-fluoropyridin-2-yl)-2,2,2-trifluoroethyl)-2-(2,6-dioxopiperidin-3-yl)-4-fluoro-1-oxoisoindoline-5-carboxamide]: the half-maximal degradation concentration (DC50) was below 100 nM and the Y entry is “* (a Y value (shown as *) of 0<Y≤20%)”.

Take `O=C1CCC(N2Cc3cc(C(=O)N[C@H](c4ncc(Cl)cc4Cl)C(F)(F)F)ccc3C2=O)C(=O)N1` (stereo partly drawn) [Example 184, N-((R)-1-(3,5-dichloropyridin-2-yl)-2,2,2-trifluoroethyl)-2-(2,6-dioxopiperidin-3-yl)-1-oxoisoindoline-5-carboxamide]: the DC50 was below 100 nM and the Y entry is “* (a Y value (shown as *) of 0<Y≤20%)”.
